Reference: patent US12116371B2, “Substituted pyridines as irreversible inhibitors of menin-MLL interaction” (BIOMEA FUSION, INC., priority 2018, dated 2024)
Read-outs that look alike come from different tables or passages of the source. One block for each molecule: values may come before it.

Tests used:
[1] = system: HL-60 cells; assay: Long-term proliferation (LTP) assay, CellTiterGlo (Example 103); format: cell-based
Method: (§1) The day of the experiment (TO) all the cell line suspensions were counted by Cell Viability Analyser, Vi-CELL and properly diluted with fresh medium to obtain the cell density reported in the Test System paragraph.
(§2) Cells were tested after 4 passages after thawing.
(§3) 200 μL/well and 150 μL/well of cell suspension were added into the 0.4 µL/well and 0.3 μL/well compound plates, respectively. • Cell plate containing 200 μL/well suspension was incubated at 37° C. in a humidified incubator with 5% CO2. • From each well of the 150 µL/well cell assay plate, 100 μL were harvested and transferred into a 96-well Optiplate (Perkin Elmer, Cat. n. 6005290) and cell viability was measured as described in 4.3 paragraphs (TO). • After four days in culture (T4) 150 μL/well of fresh medium were added into a new […] copy compound plate. • From each well of the 200 μL/well cell assay plate: • 100 μL were sampled for the cell viability measurement as described in 4.3 paragraphs (T4). • 50 μL were harvested and added to the 150 μL/well compound plate prepared as described in the first point to dilute 1:4 the cell suspension. • The cell assay plate diluted and containing 200 µL/well suspension were incubated at 37° C. in a humidified incubator with 5% CO2.
(§4) At T7-T11-T14 it was proceeded as described in T4, with the exception that no further cell dilution was carried out at T14.
(§5) Plates containing the samples to be tested were equilibrated at room temperature for approximately 30 min and then 30 μL/well of the Promega CellTiterGlo® reagent were added. Contents will be mixed for 5 min on an orbital shaker to induce cell lysis and then incubated at room temperature for an additional 10 min to stabilize the luminescent signal.
(§6) Luminescence was read by using VictorV (Perkin Elmer) multilabel plate reader using the standard protocol for luminescence in 96 well plate.
(§7) Data were expressed as % of inhibition compared to the 0.2% DMSO negative control, and was calculated as follows: % inhibition=100−[(RLU sample)×100/(RLU average controls*)] • *cells containing 0.2% DMSO
(§8) CRCs were analysed by GraphPad and IC50 values were calculated by non-linear regression using 4 parameter-logistic equation. IC50 (M) values were reported in the final data table.

[2] = system: RS4-11 (MLL-AF4) cells; assay: as above; format: cell-based; conditions: for IC50: Homo sapiens, RS4-11 (MLL-AF4), LTP assay
Method: as §1, §2, §3, §4, §5, §6, §7, §8

[3] = system: MV4-11 (MLL-AF4) cells; assay: as above; format: cell-based, human; conditions: for IC50: Homo sapiens, MV4-11 (MLL-AF4), LTP assay
Method: as §1, §2, §3, §4, §5, §6, §7, §8

[4] = system: MOLM-13 (MLL-AF9) cells; assay: as above; format: cell-based, human; conditions: for IC50: Homo sapiens, MOLM-13 (MLL-AF9), LTP assay
Method: as §1, §2, §3, §4, §5, §6, §7, §8

[5] = target: T1, menin-MLL protein-protein interaction (Homo sapiens, UniProt O00255); conditions: S. Xu et al. Angewandte Chemie; cited from earlier work
T1 sequence (O00255 1-610): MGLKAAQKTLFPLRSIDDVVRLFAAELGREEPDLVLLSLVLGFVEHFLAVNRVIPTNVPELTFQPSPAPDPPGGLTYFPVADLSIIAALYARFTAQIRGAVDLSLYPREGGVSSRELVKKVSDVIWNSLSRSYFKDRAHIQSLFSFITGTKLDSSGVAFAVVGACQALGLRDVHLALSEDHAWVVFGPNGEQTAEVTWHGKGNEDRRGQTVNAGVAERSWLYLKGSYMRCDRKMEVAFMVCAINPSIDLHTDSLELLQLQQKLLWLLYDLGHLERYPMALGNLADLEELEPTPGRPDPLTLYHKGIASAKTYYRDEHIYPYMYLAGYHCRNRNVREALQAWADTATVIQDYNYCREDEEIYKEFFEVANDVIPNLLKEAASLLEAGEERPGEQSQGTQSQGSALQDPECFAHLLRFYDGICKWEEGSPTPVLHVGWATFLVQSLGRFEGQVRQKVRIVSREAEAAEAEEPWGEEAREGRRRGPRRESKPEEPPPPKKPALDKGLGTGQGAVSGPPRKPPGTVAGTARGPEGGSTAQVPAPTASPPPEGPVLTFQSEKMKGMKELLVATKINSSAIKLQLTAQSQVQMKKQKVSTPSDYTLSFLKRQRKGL

[6] = system: MV4-11 (MLL-AF4) cells; assay: Cell proliferation inhibition, CellTiterGlo viability assay, 4 days (Example 102); format: cell-based, human; conditions: 4 days treatment
Source text: (§9) The objective of the study was to evaluate the ability of compounds of the invention, inhibitors of Menin/MLL interaction to inhibit cell proliferation. The proliferation inhibitory effect was investigated in two human MLL-leukemia cells selected on the bases of MLL fusion protein and listed in Table 1. HL-60 cell line was used as negative control (Table 3).
(§10) ATP is present in all metabolically active cells and is considered as a marker for cell viability and proliferation. The metabolic cell activity was determined using the CellTiter-Glo kit from Promega, an ATP monitoring system based on the production of luminescence by the reaction of ATP with added UltraGlo® recombinant luciferase (Kawano et al., 2016), according to the supplier's experimental recommendations.
(§11) The described assay evaluates the ability of representative compounds of invention to inhibit the cell proliferation in the human MLL-leukemia cells plus a negative control cell line.
(§12) The assay provides potency values (IC50) for each test compound at a single time point Day 4 (T4).
(§13) Seven concentrations of the NCEs (2.00E-05-6.67E-06-2.22E-06-7.41E-07-2.47E-07-8.23E-08-2.74E-08M), were assessed in duplicate in an individual test occasion in all the cell lines. MI-503 (Borkin et al., 2015) was used as reference compound and was tested at the same concentrations as the NCEs. 100% of proliferation is represented by the untreated cells (0.2% DMSO). The cell growth was monitored up to 4 days in culture.
(§14) MV4-11, MOLM-13 and HL-60 cells (see Table 2) were maintained in RPMI-1640 medium (Invitrogen, Cat. n. 618700, Batch n. 1965930) supplemented with 10% of Heat Inactivated FBS (Invitrogen, Cat n. 10500, Batch n. 08Q8078K) and 1% Pen-Strep (Invitrogen, Cat. N. 15140, Batch n. 1910859) and cultured at 37° C. in a humidified incubator with 5% CO2. All the cell lines grow in suspension and the cell density was maintained in a range of 2×10^5-1×10^6 viable cells/ml. Cells were pelleted at 130 g×5 min and conditioned medium was used to dilute the cell suspension.
(§15) Cells were plated in 96-well flat bottom microtiter plates at cell density of 15,000 cells/ml for HL-60, 1000 cells/ml for MOLM-13 and 10,000 cell/ml for MV4-11. Cells were treated with 0.2% DMSO (Sigma, D8418, batch n. SHBH4245V) or serial dilutions of compounds ([…]) in DMSO (0.2% final concentration). Cells were incubated in a 5% CO2 incubator at 37° C. for 4 days. A CellTiterGlo viability assay (Promega) was employed. Luminescence was read by using VictorV (Perkin Elmer) multilabel plate reader using the standard protocol for luminescence in 96 well plate. The experiment was performed in duplicate.
(§16) Data were expressed as % of inhibition compared to the 0.2% DMSO negative control, and was calculated as follows: % inhibition=100−[(RLU sample)×100/(RLU average controls*)]*cells containing 0.2% DMSO
(§17) CRCs were analysed by GraphPad and IC50 values were calculated by non-linear regression using 4 parameter-logistic equation. IC50 (μM) values were reported in the final data table. The curve fittings were performed leaving free all the parameters. Any constrain were reported in the results table.

[7] = system: MOLM-13 (MLL-AF9) cells; assay: as above; format: cell-based, human; conditions: 4 days treatment
Source text: as §9, §10, §11, §12, §13, §14, §15, §16, §17

[8] = system: HL-60 cells; assay: as above; format: cell-based; conditions: 4 days treatment, CellTiterGlo
Source text: as §9, §10, §11, §12, §13, §14, §15, §16, §17

[9] = 168 h, Day 7, read-out: Day 7 IC50
[10] = 264 h, Day 11, read-out: Day 11 IC50
[11] = 336 h, Day 14, read-out: Day 14 IC50

IC50 ([1]; Homo sapiens, 264 h, Day 11, LTP assay, read-out: Day 11 IC50): > 5000 nM | IC50 ([2]; 96 h, Day 4, read-out: Day 4 IC50): 1480 nM | IC50 [2, 9]: 930 nM | IC50 [2, 10]: > 5000 nM | IC50 [3, 9]: 4370 nM | IC50 [3, 10]: 1700 nM | IC50 [3, 11]: 1230 nM | IC50 ([4]; 96 h, heading: Day 4 IC50, Day 4, read-out: Day 4 IC50): > 5000 nM | IC50 ([4]; 168 h, heading: Day 7 IC50, Day 7, read-out: Day 7 IC50): > 5000 nM | IC50 [4, 10]: 1410 nM | IC50 [4, 11]: 3890 nM
SMILES: C=CC(=O)NC1CN(c2ccnc(NC(=O)Nc3ccc(-c4nc5c(N6CCOCC6)nccc5[nH]4)cc3)c2)C1 [Compound 23]
activity up to T14 ([1]; up to T14): absence of activity | effect on cell viability at T4 ([2]; RS4;11, T4, increasing concentrations): showed an effect | change of effect with the time in culture ([3]; MV4-11, along the 14 days in culture): increase of the effect | change of effect with the time in culture ([4]; MOLM-13, along the 14 days in culture): increase of the effect

SMILES: COC(=O)N[C@H]1CCC[C@@H]1[C@](C#N)(c1cccc(F)c1)C1CCN(CC2CN(c3ccc(S(=O)(=O)C4CN(C(=O)/C=C/CN(C)C)C4)cc3)C2)CC1 [Compound M-525]
potency relative to the corresponding reversible inhibitors [5]: > 30 times

pIC50 [6]: 6.73 | IC50 ([6]; read-out: IC50): 190 nM | pIC50 [7]: 6.63 | IC50 ([7]; read-out: IC50): 230 nM | pIC50 [8]: 6.38 | IC50 ([8]; read-out: IC50): 420 nM
SMILES: Cc1c(CN2CCC(Nc3ncnc4sc(CC(F)(F)F)cc34)CC2)ccc2c1cc(C#N)n2Cc1cn[nH]c1 [MI-503, reference compound]
% max [6]: 100% | % max [7]: 98% | % max [8]: 103%
